Values joined by “and” are separate entries in the source; they are usually repeats but may differ in a detail not shown here. Equal values may be shown once. Active and inactive are the calls of the source. The rule behind the calls is not given here.

This assay has as its system in vivo angiogenesis, blood vessel count. Briefly: reduction of blood vessel formation in vivo – HTS, in vivo study (AID 732).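 Note: zebrafish embryos dosed at one day post fertilization; 0% = reference inhibitor and 100% = plate mean.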 The note with it: hits give low values;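 tested at 30 µM in the well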.
Consider `NNCCc1ccccc1`, for which the vessel count % control is 104% (inactive). To `C[n+]1cc2c3c(ccc2c2ccc4cc5c(cc4c21)OCO5)OCO3` belongs 0% (inactive). Regarding `Cn1c(=O)[nH]c2ncn(C)c2c1=O`, the vessel count % control was 95.7% (inactive). `O=c1[nH]c(=O)n([C@H]2C[C@H](O)[C@@H](CO)O2)cc1/C=C/Br`: the vessel count % control was 93% (inactive). To `Nn1nnc2ccccc21` belongs 109% (inactive); to `Cc1cc(N)c2ccccc2[n+]1CCCCCCCCCC[n+]1c(C)cc(N)c2ccccc21`, 100% (inactive). Under `COC(=O)C1=CCCN(C)C1` stands 66% (inactive); under `Cc1ccccc1C(OCCN(C)C)c1ccccc1` (stereo not given), 108% (inactive); under `c1ccc2nc(N3CCNCC3)ccc2c1`, 98% (inactive). Consider `CCCCCCCCCCCCC/C=C/C(O)C(N)CO` (stereo not given), for which the vessel count % control was 112% (inactive).

`COc1ccc2c(c[n+](C)c3c4cc5c(cc4ccc23)OCO5)c1OC`: the vessel count % control is 124% (inactive). To `CCCCCCCCCCCCCCC[C@H](O)[C@H](N)CO` belongs 101% (inactive); to `O=C(O)[C@@H]1CCN1`, 84.3% (inactive).

For `Cc1nc(N=Nc2ccc(S(=O)(=O)O)cc2S(=O)(=O)O)c(COP(=O)(O)O)c(C=O)c1O`, the vessel count % control is 110% (inactive). To `CNC(=O)[C@H]1O[C@@H](n2cnc3c(NCc4cccc(I)c4)ncnc32)C(O)[C@H]1O` (stereo not given in full) belongs 83.3% (inactive); to `CN1CCC(c2c[nH]c3ccc(O)cc23)CC1`, 95.9% (inactive). In the case of `OC[C@H]1O[C@@H](n2cnc3c(NCCc4ccccc4)ncnc32)C(O)[C@H]1O` (stereo not given in full), the vessel count % control was 79.4% (inactive). As for `CSC(=N)N`, the vessel count % control was 68.6% (inactive). Under `CCCCCCCCCCCCCC(=O)O[C@@H]1[C@@H](C)[C@@]2(O)[C@@H](C=C(CO)C[C@@]3(O)C(=O)C(C)=C[C@@H]23)C2C(C)(C)[C@@]21OC(C)=O` (stereo not given in full) stands 0% (inactive); under `Cc1ccc(S(=O)(=O)NC(=O)NN2CCCCCC2)cc1`, 102% (inactive). Under `NC(N)=NCc1cccc(I)c1` stands 98.4% (inactive); under `CN[C@H]1CC[C@@H](c2ccc(Cl)c(Cl)c2)c2ccccc21`, 98% (inactive). Under `O=C(O)c1cc2cc(F)ccc2[nH]1` stands 104% (inactive). In the case of `COc1cc([C@@H]2c3cc4c(cc3[C@H](O)C3COC(=O)[C@@H]32)OCO4)cc(OC)c1OC` (stereo not given in full), the vessel count % control is 88.6% (inactive). To `CNC(=O)Oc1ccc2c(c1)[C@]1(C)CCN(C)[C@@H]1N2C` belongs 120% (inactive); to `CN1CCc2cc(Cl)c(O)cc2[C@@H](c2ccccc2)C1`, 97.5% (inactive); to `COc1ccc(CNC(=O)/C=C/c2ccc3[nH]cc(CCN(C)C)c3c2)cc1`, 75.8% (inactive). `CC[C@H]1CN2CCc3cc(OC)c(OC)cc3[C@@H]2C[C@@H]1C[C@H]1NCCc2cc(OC)c(OC)cc21`: the vessel count % control is 103% (inactive). As to `N=c1c[n+](N2CCOCC2)[n-]o1`, the vessel count % control is 110% (inactive). In the case of `OCCN1CCN(CC/C=C2/c3ccccc3Sc3ccc(C(F)(F)F)cc32)CC1`, the vessel count % control was 110% (inactive). To `C=CCN1CCC23c4c5ccc(O)c4O[C@H]2C(=O)CC[C@@]3(O)C1C5` (stereo not given in full) belongs 88.4% (inactive). Under `CN(C)CCCN1c2ccccc2CCc2ccc(Cl)cc21` stands 85.2% (inactive). Consider `NC(N)=NC(N)=Nc1cccc(Cl)c1`, for which the vessel count % control was 103% (inactive). Take `COc1cc2nc(N3CCN(C(=O)OCc4ccccc4)C(C(=O)NC(C)(C)C)C3)nc(N)c2cc1OC` (stereo not given): the vessel count % control is 104% (inactive). For the molecule `CN(C)C(=O)C(CCN1CCC(O)(c2ccc(Cl)cc2)CC1)(c1ccccc1)c1ccccc1`, the vessel count % control is 126% (inactive).

On to `Ic1ccccc1CNC1C2CCN(CC2)C1C(c1ccccc1)c1ccccc1` (stereo not given), for which the vessel count % control is 103% (inactive). To `Cc1nc2sccn2c(=O)c1CCN1CCC(=C(c2ccc(F)cc2)c2ccc(F)cc2)CC1` belongs 68.8% (inactive); to `CN(C)S(=O)(=O)c1ccc2c(c1)/C(=C/c1cc3c([nH]1)CCCC3)C(=O)N2`, 120% (inactive).

Turning to `NC(N)=NC(=O)Cc1c(Cl)cccc1Cl`, the vessel count % control was 119% (inactive). To `COc1ccc(CCN(C)CCCC(C#N)(c2ccc(OC)c(OC)c2)C(C)C)cc1OC` (stereo not given) belongs 118% (inactive). To `CCN(CC)CCCC(C)Nc1c2ccc(Cl)cc2nc2ccc(OC)cc12` (stereo not given) belongs 0% (inactive); to `CCCCCCCCCCCCCCSCC(=O)O`, 93.7% (inactive).

With `O=C(c1ccc(F)cc1)C1CCN(CCn2c(=O)[nH]c3ccccc3c2=O)CC1`, the vessel count % control is 103% (inactive). Under `NCC(O)c1ccc(O)cc1` (stereo not given) stands 103% (inactive). Under `CN1C[C@H](CNC(=O)OCc2ccccc2)C[C@@H]2c3cccc4c3c(cn4C)C[C@H]21` stands 111% (inactive); under `O=C(O)CC[N+](=O)[O-]`, 87.6% (inactive); under `Oc1cc2c(cc1O)C(c1ccccc1)CNCC2` (stereo not given), 85.1% (inactive). For `CC(=O)NNC(=O)N1Cc2ccccc2Oc2ccc(Cl)cc21`, the vessel count % control was 0% (inactive). As to `CC[C@@H](CO)NC(=O)[C@@H]1C=C2c3cccc4c3c(cn4C)C[C@H]2N(C)C1`, the vessel count % control was 70.9% (inactive). On to `CC(=O)OCC(=O)[C@@]1(O)CC[C@H]2[C@@H]3CCC4=CC(=O)CC[C@]4(C)[C@H]3C(=O)C[C@@]21C`, for which the vessel count % control was 97.3% (inactive). For the molecule `NC12CC3CC(CC(C3)C1)C2`, the vessel count % control is 110% (inactive).

Regarding `CC(C)COCC(CN(Cc1ccccc1)c1ccccc1)N1CCCC1` (stereo not given), the vessel count % control was 104% (inactive). To `CC(=O)c1c(O)c(C)c(O)c(Cc2c(O)c3c(c(C(=O)/C=C/c4ccccc4)c2O)OC(C)(C)C=C3)c1O` belongs 0% (inactive); to `N#CC(=Cc1ccc(O)c(O)c1)C(N)=S`, 118% (inactive). In the case of `C[N+]1(C)CCOC(O)(c2ccc(-c3ccc(C4(O)C[N+](C)(C)CCO4)cc3)cc2)C1` (stereo not given), the vessel count % control is 103% (inactive). Under `Nc1nc(Nc2ccccc2)nc2c1ncn2[C@@H]1O[C@H](CO)[C@H](O)C1O` (stereo not given in full) stands 94.3% (inactive). For `CC1=C(/C=C/C(C)=C/C=C/C(C)=C/C(=O)Nc2ccc(O)cc2)C(C)(C)CCC1`, the vessel count % control was 96.8% (inactive).

On to `N.N.N.N.N.N.N.N.N.N.N.N.N.N.O.O.[Cl-].[Cl-].[Cl-].[Cl-].[Cl-].[Cl-].[Ru+4].[Ru+5].[Ru+5]`, for which the vessel count % control is 123% (inactive). To `O=C(O)c1cc(=O)c2c(Cl)cc(Cl)cc2[nH]1` belongs 113% (inactive). On to `CN1C(C)(C)CCCC1(C)C`, for which the vessel count % control was 106% (inactive).

For the molecule `COc1ccc2c(c1OC)C(=O)O[C@H]2[C@@H]1c2cc3c(cc2CCN1C)OCO3`, the vessel count % control is 116% (inactive).

On to `CO/N=C(\C(=O)N[C@@H]1C(=O)N2C(C(=O)O)=C(COC(C)=O)CS[C@H]12)c1csc(N)n1` (stereo in doubt), for which the vessel count % control is 104% (inactive). Consider `CC(=O)N[C@@H](CS)C(=O)O`, for which the vessel count % control was 96.5% (inactive). Turning to `O=c1cc(N2CCOCC2)oc2c(-c3ccccc3)cccc12`, the vessel count % control is 120% (inactive).

For the molecule `COc1ccc2cc([C@H](C)C(=O)O)ccc2c1`, the vessel count % control was 101% (inactive). As for `O=c1onc2cnc3ccccc3n12`, the vessel count % control is 95.4% (inactive). For `C[C@H](Cc1ccc2c(c1)OC(C(=O)O)(C(=O)O)O2)NC[C@H](O)c1cccc(Cl)c1`, the vessel count % control is 98.2% (inactive). To `CN1CCN(C2=Nc3ccccc3Oc3ccc(Cl)cc32)CC1` belongs 123% (inactive); to `COc1ccccc1OCC(O)CN1CCN(CC(=O)Nc2c(C)cccc2C)CC1` (stereo not given), 97.9% (inactive); to `Cc1ccc([N+](=O)[O-])cc1S(=O)(=O)N(C)C`, 108% (inactive). To `CCCN1CC[C@@H]2c3cc(O)ccc3CC[C@@H]21` belongs 88.5% (inactive) and 103% (inactive); to `CN1C2CCC1CC(OC(=O)c1cc(Cl)cc(Cl)c1)C2` (stereo not given), 77% (inactive).

For the molecule `O=C1Cc2c([nH]c3ccc(Br)cc23)-c2ccccc2N1`, the vessel count % control was 101% (inactive). To `NC(=O)c1cccc(N)c1` belongs 117% (inactive); to `Cc1ccc(S(=O)(=O)N[C@@H](CCCCN)C(=O)CCl)cc1`, 133% (inactive); to `CCCn1c(=O)c2[nH]c(-c3ccc(OCC(=O)NCCN)cc3)nc2n(CCC)c1=O`, 99.8% (inactive). To `NCCc1ccc(O)c(O)c1` belongs 91.6% (inactive); to `COc1cc(NS(C)(=O)=O)ccc1Nc1c2ccccc2nc2ccccc12`, 106% (inactive); to `Cc1cccc(C)c1NC1=NCCCS1`, 114% (inactive). Turning to `CC(N)=NCCC[C@H](N)C(=O)O`, the vessel count % control is 134% (inactive). To `C[C@]12CC[C@@H]3c4ccc(O)cc4CC[C@H]3[C@@H]1CCC2=O` belongs 111% (inactive); to `Cc1cc(O)c2c(c1)C(=O)c1cc(O)cc(O)c1C2=O`, 87.5% (inactive); to `C[C@]12C=CC(=O)C=C1CC[C@H]1[C@@H]3C[C@@H](O)[C@](O)(C(=O)CO)[C@@]3(C)C[C@H](O)[C@@]12F`, 129% (inactive). As to `COc1ccc2c(c1OC)C(=O)O[C@@H]2[C@H]1c2c(cc3c(c2OC)OCO3)CCN1C`, the vessel count % control was 127% (inactive). To `COC(=O)[C@@H](N)Cc1ccc(O)c(O)c1` belongs 99.1% (inactive).

For the origin of these results see PubChem BioAssay AID732 (Emory University Molecular Libraries Screening Center, 2007).
